Laboratory results taken from publication PMC11489226 (Archives of Toxicology, 2024).
Several values for one entry are separate records, joined by “and”; a condition that tells them apart may be missing. Identical values can stand only once.

Experiments:
CYP3A4 = CYP3A4 (Homo sapiens, UniProt P08684); assay: Metabolism in transgenic HEK293 cells expressing CYP3A4; details: 20 µM parent PCB, 24 h, supernatant
Experimental: (§1) For the generation of transgenic cell lines, we used semi-adherent HEK293 cells (DSMZ, ACC305, human embryonic kidney cells) which were cultured on a daily basis in DMEM medium supplemented with 10% (FCS) and 1% penicillin/streptomycin. In a first step CYP1A2, CYP2C8, CYP2C9, CYP3A4, CYP2A6, and CYP2E1 cDNA were cloned into the plasmid pcDNATM3.1/V5-His TOPO® using human liver RNA as a template and using the following primers: CYP1A2 for5′-[…]-3′, CYP1A2 rev 5′-[…]-3′; CYP2C8 for 5′-[…]-3′, CYP2C8 rev 5′-[…]-3′; CYP2C9 for 5′-[…]-3′, CYP2C9 rev 5′-[…]-3′; CYP3A4 for 5′-[…]-3′, CYP3A4 rev 5′-[…]-3′, CYP2A6 for 5′-[…]-3′, CYP2A6 rev 5′-[…]-3′; CYP2E1 for 5′-[…]-3′, CYP2E1 rev 5′-[…]-3′. Final constructs were verified with Sanger DNA sequencing and restriction digestion. For transfection, 3 × 10^6 HEK293 cells were pre-incubated in a 10 cm dish in DMEM medium with 10% FCS, but without antibiotics, for 18 to 24 h. When the cells reached approximately 70% confluency, they were transfected using TransIT-LT1 transfection reagent (Biozol, Eiching, Germany). The TransIT-LT1 reagent was warmed to room temperature and vortexed. 1.63 mL Opti-MEM, 16.25 µL plasmid DNA (1 µg/µL), and 48.75 µL TransIT-LT1 reagent were mixed and incubated for 15 to 30 min. The mixture was then added dropwise to the medium of the cells, and the cells were incubated again at 37 °C and 5% CO2. After 24 h, the medium was replaced with standard medium and geneticin was added for selection (1 mg/mL). Cells were selected for 6–8 weeks in bulk culture, and single cell clones were obtained subsequently by limiting dilution. Each clone was checked for insertion by PCR using genomic DNA as a template.
(§2) Parallel samples were run without the addition of PCBs. At a confluence of 80%, PCBs (20 μM each, dissolved in ethanol) were added and cells were incubated for 24 h before harvest of supernatants. Supernatants were diluted 1:2 with 80 μL acetate buffer 0.1 M (pH = 5.3). 100 μL of this dilution were further incubated with 100 μL of ammonium acetate buffer 0.1 M (pH = 5.3) and 5 μL of β-Glucuronidase/Arylsulfatase enzyme overnight in a drying oven at 37 °C for enzymatic hydrolysis to release conjugated compounds. 50 μL of a mix of internal standards (10 ng/mL) and 600 μL of methanol were added to the samples, then mixed by vortexing for 1 min and centrifuged for 10 min at 3400g. The individual supernatants were transferred to glass LC vials and evaporated to approximately 50 μL at 45 °C under a gentle stream of nitrogen. Finally, 0.1 mol/ L ammonium acetate buffer was added to a final volume of 100 μL and then transferred to an insert for analysis.
(§3) HEK293 cells overexpressing the respective CYP enzymes were seeded onto 6-well plates and were treated with or without 10 µM of the respective probe drug in DMEM medium for 24 hours at 37 °C and 5 % CO2. After incubation 200 µL DMEM were collected, cells were washed with PBS and adherent cells were lysed in 500 µL methanol for 20 minutes. Analytes were measured by LC-MS/MS either in methanol cell lysates or in DMEM supernatant.
(§4) 50 µL of DMEM samples were protein precipitated by adding 200 µL of methanol and were centrifuged for 20 min, 17,000 g and 4°C. Supernatants were diluted in water or 40 % methanol according to dilution factor. Methanol cell lysates were diluted ½ with water and centrifuged for 20 min, 17,000 g and 4°C. 5 µL of the processed samples were injected for LC-MS analysis.

CYP2E1 = CYP2E1 (Homo sapiens, UniProt P05181); assay: Metabolism in transgenic HEK293 cells expressing CYP2E1; details: 20 µM parent PCB, 24 h, supernatant
Experimental: as §1, §2, §3, §4

CYP2C8 = target: T1, CYP2C8 (Homo sapiens, UniProt P10632); assay: Metabolism in transgenic HEK293 cells expressing CYP2C8; assay type: in vitro ADME; details: 20 µM parent PCB, 24 h, supernatant
T1 construct: V5-His (vector-encoded) (C); expressed in transfected cells
T1 sequence (P10632 1-490): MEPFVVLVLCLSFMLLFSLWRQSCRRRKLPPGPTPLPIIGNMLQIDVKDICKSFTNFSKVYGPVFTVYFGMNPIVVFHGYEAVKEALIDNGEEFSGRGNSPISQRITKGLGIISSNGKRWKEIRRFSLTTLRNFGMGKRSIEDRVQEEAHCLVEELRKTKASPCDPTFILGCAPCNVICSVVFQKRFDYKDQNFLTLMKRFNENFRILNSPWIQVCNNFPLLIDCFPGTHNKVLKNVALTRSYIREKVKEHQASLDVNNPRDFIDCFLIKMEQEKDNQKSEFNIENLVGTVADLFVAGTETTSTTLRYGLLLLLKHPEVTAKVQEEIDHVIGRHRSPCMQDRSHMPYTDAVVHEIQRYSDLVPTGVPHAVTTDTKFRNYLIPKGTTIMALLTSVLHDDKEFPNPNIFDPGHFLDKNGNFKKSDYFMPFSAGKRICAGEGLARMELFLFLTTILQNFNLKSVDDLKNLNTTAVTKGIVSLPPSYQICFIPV
Experimental: as §1
as §2, with “analysis. […]” for “analysis.”

CYP2A6 = target: T2, CYP2A6 (Homo sapiens, UniProt P11509); assay: Metabolism in transgenic HEK293 cells expressing CYP2A6; assay type: in vitro ADME; parameters: V5-His (vector-encoded) (C); expressed in transfected cells; details: 20 µM parent PCB, 24 h; for Quantification of metabolites generated from PCB28, 52, and 101: supernatant; for Metabolite concentration formed, range across cell clones: HEK293CYP2A6 cell lines
T2 sequence (P11509 1-494): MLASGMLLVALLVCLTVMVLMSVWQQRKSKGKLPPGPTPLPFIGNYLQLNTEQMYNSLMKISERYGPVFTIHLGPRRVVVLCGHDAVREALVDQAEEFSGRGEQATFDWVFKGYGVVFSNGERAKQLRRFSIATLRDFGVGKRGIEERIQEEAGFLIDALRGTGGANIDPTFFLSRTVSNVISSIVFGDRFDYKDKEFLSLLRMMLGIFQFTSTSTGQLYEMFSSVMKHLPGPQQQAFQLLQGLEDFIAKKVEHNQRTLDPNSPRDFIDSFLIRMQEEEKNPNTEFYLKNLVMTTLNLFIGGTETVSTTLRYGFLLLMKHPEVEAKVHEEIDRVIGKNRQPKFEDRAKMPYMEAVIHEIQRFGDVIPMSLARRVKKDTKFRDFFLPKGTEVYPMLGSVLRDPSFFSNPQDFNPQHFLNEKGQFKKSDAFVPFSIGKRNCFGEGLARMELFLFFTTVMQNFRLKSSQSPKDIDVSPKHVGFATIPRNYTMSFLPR
Experimental: as §1, §2, §3, §4

HEK293CYP2A6 cells = assay: Micronucleus assay in HEK293CYP2A6 cells; assay type: cell-based, human; details: positive control, 10 µm, 24 h
Experimental: Transgenic HEK293CYP2A6 and HEK293CYP2C9 cells were cultured in T25 flasks, with a seeding density of 1 × 10^6 cells per flask at 37 °C with 5% CO2. Cells were allowed to grow for 24 h geneticin free before PCBs were added (20 µM or 30 µM). Controls included cells grown in the presence of 1% ethanol (vol/vol) (negative control) or […] 4-nitroquinoline 1-oxide (positive control). Following further incubation for 24 h, cells were synchronized by adding Cytochalasin B. Subsequently, cells were harvested by trypsinization, centrifuged (2,000g, 10 min), and washed with DPBS (Dulbecco’s PBS). For hypotonic shock, 4 °C cold potassium chloride solution was added to the cells under agitation. Cells were completely resuspended and incubated at room temperature for 5 min. After centrifugation (2,500g, 10 min), the supernatant was discarded. To fix the cells, they were treated with a methanol/acetic acid solution (− 20 °C), with a minimum incubation time of 15 min at room temperature. Following centrifugation (2,500g, 10 min), the supernatant was discarded, and the fixation process was repeated at least three times. Finally, the samples were dissolved in 1 mL of fixative solution and incubated overnight at 4 °C. For analysis, two to three drops from each sample were placed on a glass slide, with intermittent heating of the slide. Subsequently, the cells were visualized with acridine orange, and using a fluorescence microscope (Leica DM6000B, Filter I3 450–490 nm), 2,000 cells per sample were counted.

CYP1A2 = target: T3, CYP1A2 (Homo sapiens, UniProt P05177); assay: Metabolism in transgenic HEK293 cells expressing CYP1A2 (LC-MS/MS of supernatant)
T3 sequence (P05177 1-516): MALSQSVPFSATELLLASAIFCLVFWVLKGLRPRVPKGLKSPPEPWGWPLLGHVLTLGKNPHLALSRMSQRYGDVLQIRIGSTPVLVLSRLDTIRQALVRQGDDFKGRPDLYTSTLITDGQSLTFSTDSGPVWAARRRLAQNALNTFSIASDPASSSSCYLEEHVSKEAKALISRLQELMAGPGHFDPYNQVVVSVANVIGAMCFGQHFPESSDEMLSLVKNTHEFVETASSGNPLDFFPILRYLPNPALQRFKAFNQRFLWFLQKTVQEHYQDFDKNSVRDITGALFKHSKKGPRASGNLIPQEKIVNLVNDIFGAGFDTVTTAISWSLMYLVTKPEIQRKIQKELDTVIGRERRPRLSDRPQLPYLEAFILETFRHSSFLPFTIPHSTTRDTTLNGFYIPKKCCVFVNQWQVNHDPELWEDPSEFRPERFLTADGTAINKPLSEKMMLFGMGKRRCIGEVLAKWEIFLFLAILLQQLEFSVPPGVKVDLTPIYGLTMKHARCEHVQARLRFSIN
Experimental: as §1, §2, §3, §4

CYP3A4, sequence (P08684 whole entry): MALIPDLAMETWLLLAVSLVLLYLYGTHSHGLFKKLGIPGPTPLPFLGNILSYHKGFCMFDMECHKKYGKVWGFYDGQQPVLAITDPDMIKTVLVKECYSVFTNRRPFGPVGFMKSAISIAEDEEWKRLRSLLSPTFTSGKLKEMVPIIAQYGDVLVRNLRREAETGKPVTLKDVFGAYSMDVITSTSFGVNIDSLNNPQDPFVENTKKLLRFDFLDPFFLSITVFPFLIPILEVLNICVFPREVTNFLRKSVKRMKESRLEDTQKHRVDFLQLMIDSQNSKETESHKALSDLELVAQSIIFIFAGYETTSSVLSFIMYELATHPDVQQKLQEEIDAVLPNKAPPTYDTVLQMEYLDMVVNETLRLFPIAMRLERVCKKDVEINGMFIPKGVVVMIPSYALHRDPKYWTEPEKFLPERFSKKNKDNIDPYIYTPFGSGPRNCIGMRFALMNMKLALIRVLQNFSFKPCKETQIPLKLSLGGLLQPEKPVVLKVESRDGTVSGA
CYP2E1, sequence (P05181 whole entry): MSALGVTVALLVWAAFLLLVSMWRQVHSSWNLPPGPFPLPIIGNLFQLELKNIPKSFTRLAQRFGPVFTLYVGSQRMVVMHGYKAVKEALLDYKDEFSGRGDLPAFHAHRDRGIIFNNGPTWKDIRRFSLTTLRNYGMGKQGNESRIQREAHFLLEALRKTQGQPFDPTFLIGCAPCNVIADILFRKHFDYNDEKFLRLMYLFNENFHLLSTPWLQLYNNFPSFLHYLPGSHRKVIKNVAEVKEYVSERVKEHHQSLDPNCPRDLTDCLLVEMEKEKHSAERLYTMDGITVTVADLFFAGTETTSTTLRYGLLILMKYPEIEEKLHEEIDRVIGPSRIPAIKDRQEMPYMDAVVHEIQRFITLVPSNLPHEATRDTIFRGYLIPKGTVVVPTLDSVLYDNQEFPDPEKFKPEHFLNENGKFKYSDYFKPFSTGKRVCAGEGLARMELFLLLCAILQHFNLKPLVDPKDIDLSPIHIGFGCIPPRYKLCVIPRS

Structure (SMILES) | Quantification of metabolites generated from PCB28, 52, and 101 (CYP3A4; CYP3A4 Clone B4) | Quantification of metabolites generated from PCB28, 52, and 101 (CYP3A4; CYP3A4 Clone D10) | Quantification of metabolites generated from PCB28, 52, and 101 (CYP3A4; CYP3A4 Clone E6) | Quantification of metabolites generated from PCB28, 52, and 101 (CYP2E1; CYP2E1 Clone B4) | Quantification of metabolites generated from PCB28, 52, and 101 (CYP2E1; CYP2E1 Clone B5) | Quantification of metabolites generated from PCB28, 52, and 101 (CYP2E1; CYP2E1 Clone E6) | Quantification of metabolites generated from PCB28, 52, and 101 (CYP2C8; CYP2C8 Clone A3) | Quantification of metabolites generated from PCB28, 52, and 101 (CYP2C8; CYP2C8 Clone D8) | Quantification of metabolites generated from PCB28, 52, and 101 (CYP2C8; CYP2C8 Clone D9) | Quantification of metabolites generated from PCB28, 52, and 101 (CYP2A6; CYP2A6 Clone B7) | Quantification of metabolites generated from PCB28, 52, and 101 (CYP2A6; CYP2A6 Clone C4) | Metabolite concentration formed, range across cell clones (CYP2A6) | Quantification of metabolites generated from PCB28, 52, and 101 (CYP2A6; CYP2A6 Clone C5) | Micronucleus formation compared to the negative control ethanol (HEK293CYP2A6 cells) | Metabolite concentration formed, range across cell clones (CYP1A2; HEK293CYP1A2 cell clones, 20 µM PCB28, 24 h) | Conversion product (CYP1A2; HEK293CYP1A2, 10 µM substrate, 24 h)
Oc1cc(Cl)cc(-c2cc(Cl)ccc2Cl)c1Cl [3-OHCB52, 2,2′,5,5′-tetrachloro-3-biphenylol] | 0,21 nM | 0,66 nM | 0,45 nM | 0,38 nM | 0,59 nM | 0,74 nM | <LOQ | 0,09 nM | <LOQ | 0,87 nM | 0,75 nM | 0.23–0.27 µg/L and 0.74–0.87 nM | – | – | – | –
Oc1cc(Cl)c(-c2cc(Cl)ccc2Cl)cc1Cl [4-OHCB52, 2,2′,5,5′-tetrachloro-4-biphenylol] | 0,23 nM | 0,72 nM | 0,54 nM | 5,55 nM | 8,9 nM | 10,23 nM | <LOQ | 0,1 nM | <LOQ | 319,55 nM | 1029,16 nM | 9.48 to 316.89 µg/L | 30,78 nM | – | – | –
O=[N+]([O-])c1cc[n+]([O-])c2ccccc12 [4-nitroquinoline-(1)-oxide, reference compound] | – | – | – | – | – | – | – | – | – | – | – | – | – | consistent and significant elevation | – | –
Oc1ccc(-c2ccc(Cl)cc2)c(Cl)c1Cl [4′-OHCB25, 2′,3′,4-trichloro-4′-biphenylol] | – | – | – | – | – | – | – | – | – | – | – | – | – | – | 0.15–0.23 µg/L and 0.56–0.84 nM | –
Cn1c(=O)c2c(ncn2C)n(C)c1=O [Caffeine, reference compound] | – | – | – | – | – | – | – | – | – | – | – | – | – | – | – | Paraxanthine
